Experiments:
[1] = tested on: B16 murine melanoma model; experiment: Transplanted B16 melanoma tumor model in B6 mice: tumor appearance and growth under topical treatment; type: in vivo
Method: The effect of topical treatment with 0.1% diphencyprone in mice of the B6 strain transplanted tumor model was evaluated bl6. For which initially the animals were challenged with live cells reaching generating detectable tumors between 10 days until day 20 post challenge (FIG. 1). Tumor growth has a linear behavior reaching a peak at day 7 post near challenge (FIG. 2, black circles). […] For both cases the analysis of linear growth curves of both has no significant difference when comparing the slopes. Value p=0.85.

[2] = tested on: spleen lymphocyte populations; experiment: T lymphocyte populations in spleen of tumor-challenged treated mice (CD4, CD8, Treg, Th1, Th17); type: in vivo; conditions: b6 mice
Method: To analyze the effects of this treatment on lymphocyte populations T to determine if there was an analogy to these clinical cases effect, the treatment effect level spleen lymphocyte populations CD4 and CD8 was evaluated also subpopulations CD4 CD25 foxp3 which realizes regulatory T cells, the CD4+population Tbet+which realizes THL population and the presence of CD4+population+Ror range which realizes TH17 population. Treatment with DPCP associated tumor challenge, induced an increase in Th1 population present in spleen (FIG. 3). The analysis of mice treated b6 at least 8 experiment allows the characterization that this population increased compared to control animals, however, not be significant. […] Value p=0.59.
As for the previous case, it was determined that the effect of treatment, this time with DNCB on lymphocyte populations T as in previous case Treg (FIG. 8), Th1 (FIGS. 9A and 9B) and Th17 (FIG. 10) in b6 mice. […] Analysis of at least 8 animals per treatment let characterize the increase in this population is significant.
Finally, for the case of animals treated with liter extract, it was observed that tumor level, two behaviors that may indicate a temporary dynamic behavior of cell populations response to tumor level. […] Furthermore, the bearings of the other populations are inconclusive (FIG. 17B, 17C and 17D).

[3] = treatment associated with tumor challenge, versus control animals

O=c1c(-c2ccccc2)c1-c1ccccc1 [DPCP, diphencyprone]
overall effect of curative treatment on tumor model ([1]; mice, DPCP 0.1% to 1%): not have major effects
Tumor growth (time 0 = tumor mass detected) versus control animals treated with excipients ([1]; topical 0.1% DPCP, B6 mice): no difference
tumor appearance, average detection ([1]; topical 0.1% diphencyprone, B6 mice, post challenge, shift from 13 days, change not significant): 16 days
Th1 population (CD4+ Tbet+) present in spleen [2, 3]: increase
Th17 population (CD4+ Ror gamma+) present in spleen [2, 3]: showed no change
Treg population (CD4 CD25 foxp3) in spleen [2, 3]: showed no change
CD8 or CD4 populations associated with treatment ([2]; tumor challenge): No significant changes

Reference: patent publication US20190321429A1, “TOPICAL NATURAL LITHRAEA CAUSTICA EXTRACT COMPOSITION AND USE THEREOF IN TUMOURS” (UNIVERSIDAD DE SANTIAGO DE CHILE, priority 2016, published 2019)
